According to patent US10196357B2, “Biaryl compositions and methods for modulating a kinase cascade” (Athenex, Inc., priority 2007, dated 2019):
Several values for one entry are separate records, joined by “and”; a condition that tells them apart may be missing. Equal values may be shown once. Read-outs that look alike come from different tables or passages of the source.

Tests used:
[1] = system: lung cancer cell line A549; experiment: tumor growth inhibition, A549; assay type: cell-based, Human; conditions: Homo sapiens, A549, A549 (Lung) cells
From the text: (§1) Growth Inhibition. […] T1 values≤T0 values were designated as T, cytotoxicity.

[2] = plasma pharmacokinetics after oral administration; assay type: in vivo, Male CD-1 mice
Method: (§2) [drawing 435] are described below. Plasma concentrations were measured in mice after oral and IV administration. Both oral and IV doses were formulated in saline. Male CD-1 mice were dosed after an overnight fast and fed 4 hours post-dose.
[…] The plasma concentration of 139 was measured at 0 min, 30 min, 1 h, 3 h, 6 h, 12 h, and 24 h time points. As discussed above for the i.v. administration, the analyte was extracted and analyzed by HPLC/mass spec.

[3] = plasma pharmacokinetics after IV administration; assay type: in vivo, Male CD-1 mice; conditions: single IV dose 5 mg/kg
Method: as §2
A single IV dose of 139 was administered to male CD-1 mice intravenously at 5 mg/kg (dose volume of 3 mL/kg). The plasma concentration of 139 was measured at 0 min, 5 min, 15 min, 30 min, 1 h, 3 h, 6 h, and 12 h time points. A liquid-liquid extraction procedure was used to isolate the analyte and internal standard from mice plasma. After the extract was dried and reconstituted, the sample was directly injected into a liquid chromatography/mass spectrometry (LC/MS) system. HPLC conditions were as follows: • HPLC System: Shimadzu SCL-10 System • Analytical Column: Aquasil C18 5 μm 50×2.1 mm column. • Column Temperature: Ambient temperature • Autosampler Temperature: Ambient temperature • Mobile Phase A) 10 mM Ammonium formate in water (pH4). • B) Acetonitrile. • Flow Rate: 0.6 mL/min • Injection Volume: 4 μL • Gradient:
• Mass spectrometry conditions were as follows: • Instrument: ABI Sciex API 4000 • Mode: ESI+ • Experiment: MRM (multiple reaction monitoring) • Transitions: 139: m/z 480.1→127.1 (Rt=3.8 minute)

[4] = body weight in GL261 glioma survival study; assay type: in vivo; conditions: Temodar 5 mg/kg, C57BL/6 mice
Method: (§3) A brain tumor mouse xenograft study was conducted comparing KX2-361 and KX2-391 (KXO1) to Temodar®. The studies were conducted in C57BL/6 mice. GL261 glioma cells (1×10^5 in 5 μl DMEM) were implanted intracranial coordinates: bregma, lateral 2.0 mm, anterior 1.2 mm, 3.0 mm depth dura. Treatment was initiated 3 days post implantation. The groups were as follows (all doses in 100 μl H2O):
FIGS. 49A-E show the weight gain in each of the C57BL/6 mice in the different treatment groups. The average weight at endpoint for each of the treatment groups is shown below in Table 30. FIG. 50 is a graph showing the average weights over a 40-day period for each of the treatment groups.

GL261 glioma cells = experiment: intracranial GL261 glioma survival study; assay type: in vivo, C57BL/6 mice; conditions: 5 mg/kg weekly ×1 oral; C57BL/6 mice, intracranial GL261
Method: as §3
The median survival range and the log-rank (Mantel-Cox) statistical test results comparing the survival distributions of the samples.

[5] = system: wild-type aywl strain of HBV; experiment: HBV primary assay (HepG2-2.2.15 antiviral assay); assay type: cell-based; conditions: Test Concentration 1 μM
Method: The HBV primary assay developed was conducted similarly to that described by Korba et al., (Antiviral Res. 15: 217-228 (1991) and Antiviral Res. 19: 55-70 (1992)) with the exception that viral DNA detection and quantification have been improved and simplified (Korba et al., Antiviral Res. 19: 55-70 (1992)).
Compound 38 (KX2-377), Compound 136 (KX2-393), and Compound 137 (KX2-394) were evaluated for potential anti-HBV activity using a single high-test concentration of compounds in the standardized HepG2-2.2.15 antiviral assay. The HepG2-2.2.15 is a stable cell line producing high levels of the wild-type aywl strain of HBV. Briefly, HepG2-2.2.15 cells were plated in 96-well plates. Only the interior wells were utilized to reduce “edge effects” observed during cell culture; the exterior wells are filled with complete medium to help minimize sample evaporation. On the following day, the confluent monolayer of HepG2-2.2.15 cells was washed and the medium is replaced with complete medium containing test concentrations of a test article in triplicate. 3TC was used as the positive control, while media alone was added to cells as the untreated control. Three days later the culture medium was replaced with fresh medium containing the appropriately diluted drug. Six days following the initial administration of the test compound, the cell culture supernatant was collected, treated with pronase and DNAse and then used in a real-time quantitative TaqMan PCR assay for direct measurement of HBV DNA copies using an ABI Prism 7900 sequence detection system (Applied Biosystems, Foster City, Calif.).
The antiviral activity of each test compound was calculated by comparing its HBV DNA copies against that of the untreated control cells (100%) to derive percent inhibition level. After removing the supernatant, the remaining cells were subject to CellTiter 96 Aqueous One (Promega, Madison, Wis.) solution cell proliferation assay (MTS-based) to measure cell viability. Cytotoxicity of the compound was determined by comparing its cell viability with that of the untreated cell control to derive percentage of the cell control.

c-Src 3T3 cells = experiment: BrdU cell growth inhibition, c-Src 3T3; assay type: cell-based, mouse; conditions: Mus musculus, NIH3T3, read-out: c-Src 3T3 Growth, % of Control Mean, n = 3
Method: (§4) The GI50s for several of the compounds of the invention were assayed as described herein.
The cells were routinely cultured in DMEM supplemented with Fetal Bovine Serum (2.0% v/V), L-glutamine (2 mM) and Sodium Pyruvate (1 mM).
(§5) In the BrdU Assay for cell growth inhibition, quantitation of cell proliferation was based on the measurement of BrdU incorporation during DNA synthesis. The Cell Proliferation ELISA BrdU assay kit (colorimetric) was obtained from Roche Applied Science and performed as per vendor instructions.
(§6) The growth inhibition (GI) is determined from the formula GI=(T0−Tn×100/T0−CONn) where T0 is the BrdU growth of untreated cells at time “0”, Tn is the BrdU growth of treated cells at day “n” and CONn is the control BrdU growth of control cells at day “n”. The GI50 was extrapolated and the data plotted using XL-Fit 4.0 software.
(§7) For 96 well culture plate experiments, c-Src 3T3 medium was supplemented with 10 mM HEPES buffer. HT-29 cells were seeded in standard tissue culture 96-well plates and c-Src 3T3 cells were seeded in 96-well plates coated with Poly-D-lysine (BIOCOAT™). To increase CO2 diffusion, c-Src 3T3 96-well plates were incubated with their lids raised by ˜2 mm using sterile rubber caps.
(§8) Samples were reconstituted in DMSO at 20 mM and intermediate dilutions made using DMEM containing 10% FBS. […] Plates were assayed for BrdU and the data analyzed as above for GI50.
(§9) All compounds were initially prepared as 20 mM DMSO stock solutions and then diluted into buffer for the in vitro tumor growth assays. NG means no cell growth beyond the control and T means the number of cells in the drug treated wells was less than in the control (i.e. net cell loss).

HT29 cell line = experiment: BrdU cell growth inhibition, HT29; assay type: cell-based, human; conditions: Homo sapiens, HT-29, read-out: HT-29 Growth, % of Control Mean, n = 3
Method: as §4
The HT29 cell line is a NCI standard human colon carcinoma cell line.
as §5, §6, §7, §8, §9, §1

[6] = male, CD-1, mouse, single oral dose 25 mg/kg

Work on `C#Cc1cccc(Nc2ncnc3cc(OCCOC)c(OCCOC)cc23)c1` [Tarceva, erlotinib, reference compound] yielded a GI50 [1] of 1740 nM.
`CN1CCN(CCOc2ccc(-c3ccc(CC(=O)NCc4cccc(F)c4)cc3)c(F)c2)CC1` [Compound 139, 2-(2′-fluoro-4′-(2-(4-methylpiperazin-1-yl)ethoxy)biphenyl-4-yl)-N-(3-fluorobenzyl)acetamide] showed a bioavailability ([2]; male, CD-1, mouse, (Mean AUC0-∞ oral/oral dose)/(Mean AUC0-∞ IV/IV dose)×100%, 25 mg/kg oral, 5 mg/kg IV, read-out: Estimated bioavailability) of 34.4%, a concentration at 30 min ([2]; male, CD-1, mouse, po, 25 mg/kg, single PO dose 25 mg/kg, 30 min, read-out: Plasma Concentrations, Mean) of 318 ng/mL and a concentration at 1 h ([2]; male, CD-1, mouse, po, 25 mg/kg, single PO dose 25 mg/kg, 1 hr, read-out: Plasma Concentrations, Mean) of 142 ng/mL. The concentration at 3 h ([2]; male, CD-1, mouse, po, 25 mg/kg, single PO dose 25 mg/kg, 3 hr, read-out: Plasma Concentrations, Mean) was 330 ng/mL, the concentration at 6 h ([2]; male, CD-1, mouse, po, 25 mg/kg, single PO dose 25 mg/kg, 6 hr, read-out: Plasma Concentrations, Mean) was 119 ng/mL and the concentration at 12 h ([2]; male, CD-1, mouse, po, 25 mg/kg, single PO dose 25 mg/kg, 12 hr, read-out: Plasma Concentrations, Mean) was 56.6 ng/mL. For the same compound, the concentration at 24 h ([2]; male, CD-1, mouse, po, 25 mg/kg, single PO dose 25 mg/kg, BLQ = 0, read-out: Plasma Concentrations, Mean) was 15.6 ng/mL, the concentration at 24 h ([2]; male, CD-1, mouse, po, 25 mg/kg, single PO dose 25 mg/kg, read-out: Plasma Concentrations, Group A, B, C) was 31.2 ng/mL and the AUC(0-inf) [2, 6] was 2440 ng·h/mL. The AUC(0-t) [2, 6] was 2300 ng·h/mL, the Cmax [2, 6] was 330 ng/mL and the MRT [2, 6] was 7.7 h. For the same compound, the Tmax [2, 6] was 3 h, the half-life ([2]; male, CD-1, mouse, single oral dose 25 mg/kg, estimated from 6, 12, 24 hours) was 6.2 h and the “% AUC Extrap” value ([2]; single oral dose 25 mg/kg) was 5.7%. For the same compound, the “AUC0-∞/Dose” value ([2]; single oral dose 25 mg/kg) was 97.6 kg·ng·h/mL/mg, the concentration at 5 min ([3]; male, CD-1, mouse, plasma, iv, 5 mg/kg, 5 min, read-out: Plasma Concentrations, Group A, B, C) was 1200 ng/mL and the concentration at 5 min ([3]; male, CD-1, mouse, plasma, iv, 5 mg/kg, 5 min, read-out: Plasma Concentrations, Mean) was 1250 ng/mL. It also gave a concentration at 15 min ([3]; male, CD-1, mouse, plasma, iv, 5 mg/kg, 15 min, read-out: Plasma Concentrations, Group A, B, C) of 273 ng/mL, a concentration at 15 min ([3]; male, CD-1, mouse, plasma, iv, 5 mg/kg, 15 min, read-out: Plasma Concentrations, Mean) of 329 ng/mL and a concentration at 30 min ([3]; male, CD-1, mouse, plasma, iv, 5 mg/kg, 30 min, read-out: Plasma Concentrations, Group A, B, C) of 500 ng/mL. For the same compound, the concentration at 30 min ([3]; male, CD-1, mouse, plasma, iv, 5 mg/kg, 30 min, read-out: Plasma Concentrations, Mean) was 382 ng/mL, the concentration at 1 h ([3]; male, CD-1, mouse, plasma, iv, 5 mg/kg, 1 hr, read-out: Plasma Concentrations, Group A, B, C) was 186 ng/mL and the concentration at 1 h ([3]; male, CD-1, mouse, plasma, iv, 5 mg/kg, 1 hr, read-out: Plasma Concentrations, Mean) was 178 ng/mL. The concentration at 3 h ([3]; male, CD-1, mouse, plasma, iv, 5 mg/kg, 3 hr, read-out: Plasma Concentrations, Mean) was 207 ng/mL, the concentration at 6 h ([3]; male, CD-1, mouse, plasma, iv, 5 mg/kg, 6 hr, read-out: Plasma Concentrations, Mean) was 43.2 ng/mL and the concentration at 12 h ([3]; male, CD-1, mouse, plasma, iv, 5 mg/kg, BLQ = 0, read-out: Plasma Concentrations, Mean) was 3.67 ng/mL. It also gave a concentration at 12 h ([3]; male, CD-1, mouse, plasma, iv, 5 mg/kg, read-out: Plasma Concentrations, Group A, B, C) of 11 ng/mL, an AUC(0-inf) ([3]; male, CD-1, mouse, plasma) of 1420 ng·h/mL and an AUC(0-t) ([3]; male, CD-1, mouse, plasma) of 1410 ng·h/mL. For the same compound, the C0 ([3]; male, CD-1, mouse, plasma) was 2420 ng/mL, the MRT ([3]; male, CD-1, mouse, plasma) was 2.3 h and the clearance ([3]; male, CD-1, mouse, plasma) was 58.7 mL/min/kg. For the same compound, the half-life ([3]; male, CD-1, mouse, plasma, estimated from 3, 6, 12 hours) was 1.6 h, the Vd ([3]; male, CD-1, mouse, plasma, read-out: Vss) was 8.15 L/kg and the “% AUC Extrap” value ([3]; plasma) was 0.6%. The “AUC0-∞/Dose” value ([3]; plasma) was 284.1 kg·ng·h/mL/mg, the “Plasma Concentrations, Group A, B, C” value ([3]; 5 min, 5 mg/kg) was 1287 ng/mL and 1260 ng/mL and the “Plasma Concentrations, Group A, B, C” value ([3]; 15 min, 5 mg/kg) was 306 ng/mL and 407 ng/mL. The “Plasma Concentrations, Group A, B, C” value ([3]; 30 min, 5 mg/kg) was 367 ng/mL and 279 ng/mL and the “Plasma Concentrations, Group A, B, C” value ([3]; 1 hr, 5 mg/kg) was 210 ng/mL and 137 ng/mL.
In the case of `Cn1nnc2c(C(N)=O)ncn2c1=O` [Temodar ®, Temodar®, reference compound], the “Average weight at endpoint” value [4] is reported as 13.3 g, the Median survival (GL261 glioma cells) is reported as 29 and the “survival Range” value (GL261 glioma cells) is reported as 26-29.
For `Nc1ccn([C@@H]2CS[C@H](CO)O2)c(=O)n1` [Compound 3TC, 3TC, reference compound], the “Antiviral Activity Percent inhibition of cell control” value [5] was 92.0% and the Interpretation [5] was “Active”.
For `O=C(Cc1ccc(-c2ccccc2)cc1)Nc1cccc(F)c1` [KX1-308, N-(3-fluorophenyl)-4-biphenylacetamide], the activity at 0.1 µM (c-Src 3T3 cells; 100 nM) was 94.5%, the activity at 1 µM (c-Src 3T3 cells; 1.0 uM) was 77.7% and the activity at 10 µM (c-Src 3T3 cells; 10 uM) was 67.1%. It also gave an activity at 0.05 µM (HT29 cell line; 50 nM) of 87.9%, an activity at 0.5 µM (HT29 cell line; 500 nM) of 76.1% and an activity at 5 µM (HT29 cell line; 5 uM) of 32.3%.
